Assay results: patent publication US20240277693A1, “A PHARMACEUTICAL PRODUCT CONTAINING TASQUINIMOD AND A METHOD FOR ASSESSING THE PURITY OF SAID PRODUCT” (ACTIVE BIOTECH AB, priority 2021, published 2024)

Tests used:
Type in all cases: physicochemical
[1] = Assessment of capsules after manufacture: amount of tasquinimod and of decomposition products; details: 0 months (after manufacturing)
Text: (§1) In some embodiments, the method disclosed herein comprises storing (keeping) a sample of the pharmaceutical product for a period of time, preferably under selected conditions of temperature and humidity. The amount (or concentration) of tasquinimod and of at least one of compounds I, II, III and IV in the sample may preferably be determined at the beginning or before the storage period and at the end of the storage period. The selected storage conditions may include a temperature in the range of, for example, 20° C. to 40° C., and a relative humidity in the surrounding atmosphere in the range of, for example, 30% to 75%; e.g. 25° C. and 60% RH, or 30° C. and 65% RH, or 35° C. and 70% RH, or 40° C. and 75% RH. The storage period may extend over a time period in the range of, for example, several weeks to several years. For example, the stability testing period (“storage period”) may be 2 weeks, 3 weeks, 1 month, 2 months, 3 months, 4 months, 5 months, 6 months, 9 months, 1 year, 18 months, 2 years, 3 years, 4 years or even 5 years or longer. A shorter storage period may be selected by use of higher storage temperature and/or higher relative humidity (RH). The total amount of a tasquinimod decomposition product in the sample at the end of the storage period may be determined by, for example, HPLC.
The obtained batch of capsules was assessed by determining the amount of tasquinimod and the amount of compound III in a sample of the capsules. The selected criterion for approving the batch was that the capsules of the sample contain not more than 1.0% w/w of compound III relative to the amount of tasquinimod. […] Therefore, according to the selected criterion for approval, the batch of capsules was determined to be suitable for distribution.
The obtained batch of capsules was assessed by determining the amount of tasquinimod and the amount of compounds I, II, III and IV in a sample of the capsules. The selected criterion for approving the batch was that the capsules of the sample contain not more than in total 5% w/w of compounds I-IV relative to the amount of tasquinimod. […] Therefore, according to the selected criterion for approval, the batch of capsules was determined to be suitable for distribution.
(§2) The obtained batch of capsules was subjected to multiple assessments, viz. a first assessment comprising determining the amount of tasquinimod and the amount of compounds I, II, III and IV in a sample of the capsules directly after manufacturing, whereby the selected criterion for approving the batch for distribution was that the capsules of the sample, in a water impermeable blister pack, contain not more than in total 5% w/w of compounds I-IV relative to the amount of tasquinimod, followed by eight further, independent assessments, by determining the amount of tasquinimod and the amount of each one of compounds I, II, III and IV in a sample of the capsules at the end of a period of stability testing (by keeping the capsules, in a water impermeable blister pack, at 25° C./60% RH) of 3, 6, 9, 12, 18, 24, 36 and 48 months, respectively, whereby each time the criterion for approving the batch was that the capsules of the sample, at the end of each period of stability testing, contain a total amount of compounds I-IV of not more than 5.0% w/w, relative to the amount of tasquinimod in the capsules.

[2] = Stability testing of capsules at 25° C./60% RH in water impermeable blister pack
Text: as §1
The batch of capsules manufactured in Example 19 was assessed by determining the amount of tasquinimod and the amount of each one of compounds I, II, III and IV in a sample of the capsules at the end of a 3-month stability testing, whereby the criterion for approving the batch was that the capsules of the sample, at the end of the 3-month stability testing, contain a total amount of compounds I-IV of not more than 5.0% w/w, relative to the amount of tasquinimod in the capsules. The stability testing consisted of keeping the capsules, in a water impermeable blister pack, at 25° C./60% RH. At the end of the stability testing, the capsules contained 0.06% w/w of compound I, less than 0.05% w/w of compound II, 0.10% of compound III and less than 0.05% w/w of compound IV, relative to the amount of tasquinimod (determined to be 0.246 mg/capsule), viz. in total less than 0.26% w/w of compounds I-IV relative to the amount of tasquinimod. Therefore, according to the selected criterion for approval, the batch of capsules was determined to be suitable for distribution.
as §2

[3] = Drug product stability studies (general observations)
Text: In a drug product, compound I is formed with compound II from hydrolysis of tasquinimod. […] Compound II is further decarboxylated to form compound III.
Compound III is the decarboxylated species formed from the degradation of compound II.
The mechanism for formation of compound IV in a drug product is unknown.

[4] = 0.25 mg capsules of Example 19, 18 months
[5] = 0.25 mg capsules of Example 19, 24 months
[6] = 0.25 mg capsules of Example 19, 36 months
[7] = 0.25 mg capsules of Example 19, 48 months
[8] = 0.5 mg capsules of Example 28, 3 months
[9] = 0.5 mg capsules of Example 28, 6 months
[10] = 0.5 mg capsules of Example 28, 9 months
[11] = 0.5 mg capsules of Example 28, 12 months
[12] = 0.5 mg capsules of Example 28, 18 months
[13] = 0.5 mg capsules of Example 28, 24 months
[14] = 0.5 mg capsules of Example 28, 36 months
[15] = 0.5 mg capsules of Example 28, 48 months
[16] = 1.0 mg capsules of Example 29, 3 months
[17] = 1.0 mg capsules of Example 29, 6 months
[18] = 1.0 mg capsules of Example 29, 9 months
[19] = 1.0 mg capsules of Example 29, 12 months
[20] = 1.0 mg capsules of Example 29, 18 months
[21] = 1.0 mg capsules of Example 29, 24 months
[22] = 1.0 mg capsules of Example 29, 36 months
[23] = 1.0 mg capsules of Example 29, 48 months

Row | Decomposition products (% w/w), relative to the amount of tasquinimod in capsule ([1]; 0.5 mg capsules of Example 28) [% w/w] | Decomposition products (% w/w), relative to the amount of tasquinimod in capsule ([1]; 1.0 mg capsules of Example 29) [% w/w] | amount of decomposition product (each of compounds I-IV) in capsules, relative to the amount of tasquinimod [2, 4] [% w/w] | amount of decomposition product (each of compounds I-IV) in capsules, relative to the amount of tasquinimod [2, 5] [% w/w] | amount of decomposition product (each of compounds I-IV) in capsules, relative to the amount of tasquinimod [2, 6] [% w/w] | amount of decomposition product (each of compounds I-IV) in capsules, relative to the amount of tasquinimod [2, 7] [% w/w] | Decomposition products (% w/w), relative to the amount of tasquinimod in capsule [2, 8] [% w/w] | Decomposition products (% w/w), relative to the amount of tasquinimod in capsule [2, 9] [% w/w] | Decomposition products (% w/w), relative to the amount of tasquinimod in capsule [2, 10] [% w/w] | Decomposition products (% w/w), relative to the amount of tasquinimod in capsule [2, 11] [% w/w] | Decomposition products (% w/w), relative to the amount of tasquinimod in capsule [2, 12] [% w/w] | Decomposition products (% w/w), relative to the amount of tasquinimod in capsule [2, 13] [% w/w] | Decomposition products (% w/w), relative to the amount of tasquinimod in capsule [2, 14] [% w/w] | Decomposition products (% w/w), relative to the amount of tasquinimod in capsule [2, 15] [% w/w] | Decomposition products (% w/w), relative to the amount of tasquinimod in capsule [2, 16] [% w/w] | Decomposition products (% w/w), relative to the amount of tasquinimod in capsule [2, 17] [% w/w] | Decomposition products (% w/w), relative to the amount of tasquinimod in capsule [2, 18] [% w/w] | Decomposition products (% w/w), relative to the amount of tasquinimod in capsule [2, 19] [% w/w] | Decomposition products (% w/w), relative to the amount of tasquinimod in capsule [2, 20] [% w/w] | Decomposition products (% w/w), relative to the amount of tasquinimod in capsule [2, 21] [% w/w] | Structure (SMILES) | also measured
1 | <0.05 | <0.05 | 0.10 | 0.13 | 0.16 | 0.16 | <0.05 | 0.05 | 0.06 | 0.07 | 0.06 | 0.07 | 0.07 | 0.08 | <0.05 | <0.05 | <0.05 | <0.05 | <0.05 | <0.05 | CNc1ccc(C(F)(F)F)cc1 [Compound I, N-methyl-4-(trifluoromethyl)aniline] | amount of decomposition product (each of compounds I-IV) in capsules, relative to the amount of tasquinimod ([2]; 0.25 mg capsules of Example 19, 3 months): 0.06 % w/w; amount of decomposition product (each of compounds I-IV) in capsules, relative to the amount of tasquinimod ([2]; 0.25 mg capsules of Example 19, 6 months): 0.08 % w/w; amount of decomposition product (each of compounds I-IV) in capsules, relative to the amount of tasquinimod ([2]; 0.25 mg capsules of Example 19, 9 months): 0.12 % w/w; amount of decomposition product (each of compounds I-IV) in capsules, relative to the amount of tasquinimod ([2]; 0.25 mg capsules of Example 19, 12 months): 0.11 % w/w; Decomposition products (% w/w), relative to the amount of tasquinimod in capsule [2, 22]: <0.05 % w/w; Decomposition products (% w/w), relative to the amount of tasquinimod in capsule [2, 23]: <0.05 % w/w; change of the amount of the compound in tasquinimod drug product on storage [3]: increase under any storage conditions
2 | <0.05 | <0.05 | 0.07 | 0.10 | 0.15 | 0.19 | <0.05 | <0.05 | <0.05 | <0.05 | <0.05 | 0.06 | 0.09 | 0.11 | <0.05 | <0.05 | <0.05 | <0.05 | <0.05 | <0.05 | COc1cccc2c1c(O)c(Cc1c(O)c3c(OC)cccc3n(C)c1=O)c(=O)n2C [Compound IV, 3,3′-methylenebis(4-hydroxy-5-methoxy-1-methylquinolin-2(1H)-one)] | Decomposition products (% w/w), relative to the amount of tasquinimod in capsule [2, 22]: <0.05 % w/w; Decomposition products (% w/w), relative to the amount of tasquinimod in capsule [2, 23]: <0.05 % w/w; change of the amount of the compound in tasquinimod drug product on storage [3]: increase under accelerated conditions
3 | <0.05 | <0.05 | 0.05 | 0.05 | 0.06 | 0.06 | <0.05 | <0.05 | <0.05 | <0.05 | <0.05 | <0.05 | <0.05 | <0.05 | <0.05 | <0.05 | 0.06 | 0.06 | 0.06 | 0.06 | COc1cccc2c1c(O)c(C(=O)O)c(=O)n2C [Compound II, 4-hydroxy-5-methoxy-1-methyl-2-oxo-1,2-dihydroquinoline-3-carboxylic acid] | Decomposition products (% w/w), relative to the amount of tasquinimod in capsule [2, 22]: 0.07 % w/w; Decomposition products (% w/w), relative to the amount of tasquinimod in capsule [2, 23]: 0.08 % w/w; change of the amount of the compound in tasquinimod drug product on storage [3]: slight increase
